target: T1, recombinant human G9a protein (Homo sapiens, UniProt Q96KQ7); experiment: G9a inhibitory activity test (ALPHA); assay type: biochemical; conditions: biotinylated histone H3 peptide (1-21), SAM, read-out: Inhibitory activity (G9a IC50 value)
T1 construct: purchased BPS Bioscience Inc. #51001
T1 sequence (Q96KQ7 785-1210 limits assumed): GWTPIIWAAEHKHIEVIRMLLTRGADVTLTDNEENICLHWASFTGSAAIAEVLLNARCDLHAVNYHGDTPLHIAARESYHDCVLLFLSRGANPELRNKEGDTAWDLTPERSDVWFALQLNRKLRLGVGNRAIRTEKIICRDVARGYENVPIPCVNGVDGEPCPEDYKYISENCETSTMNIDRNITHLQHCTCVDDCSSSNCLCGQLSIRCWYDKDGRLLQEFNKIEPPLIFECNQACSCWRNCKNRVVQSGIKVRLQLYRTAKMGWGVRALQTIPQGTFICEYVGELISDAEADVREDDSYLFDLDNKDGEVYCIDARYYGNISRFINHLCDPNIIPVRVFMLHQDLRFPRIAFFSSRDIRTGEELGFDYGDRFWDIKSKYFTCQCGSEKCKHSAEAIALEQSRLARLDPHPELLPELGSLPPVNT
How it was run: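 Human G9a (0.05 to 0.1 nM) in Tris pH 9.0 buffer preincubated with compound 10 min, then biotinylated histone H3 (1-21) peptide and SAM mixed 1:1 from 500 nM and 150 μM solutions, 1 h at room temperature. H3K9me2 detected by AlphaLISA acceptor/streptavidin donor beads; IC50 from percent inhibition relative to no-compound and no-enzyme controls.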

IC50 [nM]	SMILES
≥ 200	CCCCC(NC(=O)c1[nH]c2c(c1C)C(=O)CC(C)(C)C2)C(=O)Nc1ccccc1CN1CCN(C)CC1 (stereo not drawn) [Example 1-102]
< 50	O=C(NC(CCC1CC1)C(=O)Nc1ccc(O)nc1)c1ccc(Nc2ccncc2)cc1 (stereo not drawn) [Example 1-89]
≥ 200	Cc1c(C(=O)NC(CCC2CC2)C(=O)Nc2ccc(SC(F)F)cc2)[nH]c2c1C(=O)CC(C)(C)C2 (stereo not drawn) [Example 1-65]
50 to 200	CCCCC(NC(=O)c1[nH]c2c(c1C)C(=O)CC(C)(C)C2)C(=O)Nc1cccc2c1CCCC2 (stereo not drawn) [Example 1-93]
50 to 200	CCCCC(NC(=O)c1[nH]c2c(c1C)C(=O)CC(C)(C)C2)C(=O)NC1(c2ccccc2)CC1 (stereo not drawn) [Example 1-53]
≥ 200	CCCCC(NC(=O)c1[nH]c2c(c1C)C(=O)CC(C)(C)C2)C(=O)Nc1ccc(C#N)cc1 (stereo not drawn) [Example 1-9]
≥ 200	Cc1ccc2c(c1)N(C(=O)C(CCC1CC1)NC(=O)c1[nH]c3c(c1C)C(=O)CC(C)(C)C3)CC2 (stereo not drawn) [Example 1-78]
≥ 200	CCCCC(NC(=O)c1[nH]c2c(c1C)C(=O)CC(C)(C)C2)C(=O)NCc1cccc(OC)c1 (stereo not drawn) [Example 1-45]
50 to 200	CCCCC(NC(=O)c1[nH]c2c(c1C)C(=O)CC(C)(C)C2)C(=O)NCc1ccc(OCCN(C)C)cc1 (stereo not drawn) [Example 1-18]
≥ 200	CCCCC(NC(=O)c1[nH]c2c(c1C)C(=O)CC(C)(C)C2)C(=O)Nc1ccc2[nH]c(C)cc2c1 (stereo not drawn) [Example 1-95]

The remaining lines, values behind:

SMILES	IC50 [nM]
CCCCC(NC(=O)c1[nH]c2c(c1C)C(=O)CC(C)(C)C2)C(=O)Nc1cccc(CN(CC)CC)c1 (stereo not drawn) [Example 1-108]	< 50
COc1ccc(NC(=O)C(CCC2CC2)NC(=O)c2[nH]c3c(c2C)C(=O)CC(C)(C)C3)cc1 (stereo not drawn) [Example 1-63]	50 to 200
CCCCC(NC(=O)c1[nH]c2c(c1C)C(=O)CC(C)(C)C2)C(=O)Nc1cccc(C)c1OC (stereo not drawn) [Example 1-28]	≥ 200
CCCCC(NC(=O)c1[nH]c2c(c1C)C(=O)CC(C)(C)C2)C(=O)Nc1ccc(N(C)C2CCN(C)CC2)nc1 (stereo not drawn) [Example 1-20]	< 50

same assay, conditions: read-out: Inhibitory activity (G9a IC50)

IC50 [nM]	SMILES
50 to 200	CCCCC(NC(=O)c1[nH]c2c(c1C)C(=O)CC(C)(C)C2)C(=O)Nc1ccc(N2CCCN(C)CC2)cc1 (stereo not drawn) [Example 1-110]
≥ 200	COc1ccc(NC(=O)C(CCC2CC2)NC(=O)c2ccc(NCCN(C)C)cc2)cn1 (stereo not drawn) [Example 6-66]
< 50	CCCCC(NC(=O)c1[nH]c2c(c1C)C(=O)CC(C)(C)C2)C(=O)NCc1ccc(CN(CC)CC)cc1 (stereo not drawn) [Example 18-12]
≥ 200	COc1ccc(NC(=O)C(CCC2CC2)NC(=O)c2ccc(-c3ccncc3)cc2C)cn1 (stereo not drawn) [Example 6-50]
≥ 200	COc1ccc(NC(=O)C(CCC2CC2)NC(=O)c2sc(-c3cccnc3)nc2C(F)(F)F)cn1 (stereo not drawn) [Example 6-60]
≥ 200	CCCCC(NC(=O)c1[nH]c2c(c1C)C(=O)CC(C)(C)C2)C(=O)NCc1ccc(CO)cc1 (stereo not drawn) [Example 16, N-[1-[[4-(hydroxymethyl)phenyl]methylamino]-1-oxohexan-2-yl]-3,6,6-trimethyl-4-oxo-5,7-dihydro-1H-indole-2-carboxamide]
< 50	CCCCC(NC(=O)c1[nH]c2c(c1C)C(=O)CC(C)(C)C2)C(=O)NCc1ccc(CCN)cc1 (stereo not drawn) [Example 24-3]
< 50	Cc1c(C(=O)NC(CCC2CC2)C(=O)N2CCc3c(CN4CCCC4)cccc32)[nH]c2c1C(=O)CC(C)(C)C2 (stereo not drawn) [Example 1-126]
≥ 200	CCCCC(NC(=O)c1ccc(N2CCN(C)CC2)cc1)C(=O)Nc1ccc(OC2CCN(C)CC2)nc1 (stereo not drawn) [Example 6-98]
50 to 200	CCc1c(C(=O)NC(CCC2CC2)C(=O)Nc2ccc(C)nc2)[nH]c2c1C(=O)CC(C)(C)C2 (stereo not drawn) [Example 6-11]
< 50	COc1ccc(NC(=O)C(CCC2CC2)NC(=O)c2ccc(Nc3ccncc3)cc2OC)cn1 (stereo not drawn) [Example 6-79]
≥ 200	CCCCC(NC(=O)c1nc(-c2ccccc2)sc1C)C(=O)Nc1ccc(OC2CCN(C)CC2)nc1 (stereo not drawn) [Example 11-11]
≥ 200	Cc1c(C(=O)NC(C(=O)Nc2ccc(OC3CCN(C)CC3)nc2)c2ccc(Cl)cc2)[nH]c2c1C(=O)CC(C)(C)C2 (stereo not drawn) [Example 6-29]
< 50	CCCCC(NC(=O)c1[nH]c2c(c1C)C(=O)CC(C)(C)C2)C(=O)NCc1ccc(CN2CCC(C)(C)CC2)cc1 (stereo not drawn) [Example 18-13]
< 50	CCCCC(NC(=O)c1[nH]c2c(c1C)C(=O)CC(C)(C)C2)C(=O)NCc1ccc(CN)cc1 (stereo not drawn) [Example 24-2]
50 to 200	Cc1c(C(=O)NC(CCC2CC2)C(=O)N2CCc3cc(OCCN4CCCCC4)ccc32)[nH]c2c1C(=O)CC(C)(C)C2 (stereo not drawn) [Example 1-135]
50 to 200	CCCC[C@H](NC(=O)c1[nH]c2c(c1C)C(=O)CC(C)(C)C2)C(=O)N[C@H](C)c1ccccc1 [Example 2-3]
≥ 200	CCCCC(NC(=O)CC1CCCCC1)C(=O)Nc1ccc(OC2CCN(C)CC2)nc1 (stereo not drawn) [Example 11-2]
≥ 200	COc1ccc(NC(=O)C(CCC2CC2)NC(=O)c2ccc(Nc3ccncc3C(F)(F)F)cc2)cn1 (stereo not drawn) [Example 6-71]
≥ 200	Cc1c(C(=O)NC(CCC2CC2)C(=O)N2CCc3c(OCCCN(C)C)cccc32)[nH]c2c1C(=O)CC(C)(C)C2 (stereo not drawn) [Example 1-119]
≥ 200	Cc1c(C(=O)NC(CCC2CC2)C(=O)Nc2ccccn2)[nH]c2c1C(=O)CC(C)(C)C2 (stereo not drawn) [Example 6-9]
≥ 200	Cc1c(C(=O)NC(CCC2CC2)c2nc3c(CN(C)C4CCN(C)CC4)cccc3n2C)[nH]c2c1C(=O)CC(C)(C)C2 (stereo not drawn) [Example 31-7]
≥ 200	CCCC[C@H](NC(=O)c1[nH]c2c(c1CC)CCC(C)(C)C2)C(=O)Nc1ccccc1 [Example 6-101]
< 50	COc1ccc(NC(=O)C(CCC2CC2)NC(=O)c2ccc(C3CCNCC3)cc2)cn1 (stereo not drawn) [Example 28, N-[4-cyclopropyl-1-[(6-methoxypyridine-3-yl)amino]-1-oxobutan-2-yl]-4-piperidin-4-ylbenzamide]

Continued, compound first:

SMILES	IC50 [nM]
CCCC[C@H](NC(=O)c1[nH]c2c(c1C)C(=O)CC(C)(C)C2)c1nc2ccc(OCCN3CCOCC3)cc2[nH]1 [Example 37-2]	≥ 200
CCCCC(NC(=O)c1[nH]c2c(c1C)C(=O)CC(C)(C)C2)C(=O)Nc1cc(NC(C)=O)ccc1OC (stereo not drawn) [Example 1-114]	≥ 200
CCCCC(NC(=O)c1[nH]c2c(c1C)C(=O)CC(C)(C)C2)C(=O)NCc1ccc(CNC)cc1 (stereo not drawn) [Example 18-6]	< 50
Cc1c(C(=O)NC(CCC2CC2)C(=O)N2CCc3ccc(CN4CCCCC4)cc32)[nH]c2c1C(=O)CC(C)(C)C2 (stereo not drawn) [Example 1-146]	≥ 200
Cc1ccc2nc(C(CCC3CC3)NC(=O)c3[nH]c4c(c3C)C(=O)CC(C)(C)C4)n(C)c2c1 (stereo not drawn) [Example 30-4]	≥ 200
CCCCC(NC(=O)c1[nH]c2c(c1C)C(=O)CC(C)(C)C2)C(=O)NCc1ccc(CN2CCCC(F)(F)C2)cc1 (stereo not drawn) [Example 18-7]	≥ 200
Cc1c(C(=O)NC(CCC2CC2)C(=O)N2CCc3c(OCCN(C)C)cccc32)[nH]c2c1C(=O)CC(C)(C)C2 (stereo not drawn) [Example 1-122]	50 to 200
CCCCC(NC(=O)c1[nH]c2c(c1C)C(=O)CC(C)(C)C2)C(=O)NCc1ccc(N2CCNCC2)cc1 (stereo not drawn) [Example 26-7]	< 50
CCCC[C@H](NC(=O)c1[nH]c2c(c1C)C(=O)CC(C)(C)C2)C(=O)N1CCc2c(OCCN(C)C)cccc21 [Example 6-102]	≥ 200
Cc1c(C(=O)NC(CCC2CC2)C(=O)NCc2ccc(CN(C)C)cc2)[nH]c2c1C(=O)CC(C)(C)C2 (stereo not drawn) [Example 1-149]	< 50
CCCCC(NC(=O)Cc1ccccc1N)C(=O)Nc1ccc(OC2CCN(C)CC2)nc1 (stereo not drawn) [Example 29]	≥ 200
CCCCC(NC(=O)c1[nH]c2c(c1C)C(=O)CC(C)(C)C2)C(=O)Nc1ccnc2ccccc12 (stereo not drawn) [Example 9-1, 3,6,6-trimethyl-4-oxo-N-[1-oxo-1-(quinolin-4-ylamino)hexan-2-yl]-5,7-dihydro-1H-indole-2-carboxamide]	≥ 200
COc1ccc(NC(=O)C(CCC2CC2)NC(=O)c2ccc(Nc3ccncc3)cc2Cl)cn1 (stereo not drawn) [Example 6-77]	< 50
CCCCC(NC(=O)c1[nH]c2ccc(OCC)cc2c1C)C(=O)Nc1ccc(OC2CCN(C)CC2)nc1 (stereo not drawn) [Example 6-95]	≥ 200
Cc1c(C(=O)NC(CCC2CC2)C(=O)N2CCc3c(OCCN4CCCC4)cccc32)[nH]c2c1C(=O)CC(C)(C)C2 (stereo not drawn) [Example 1-120]	50 to 200
CCCCC(NC(=O)c1[nH]c2c(c1C)C(=O)CC(C)(C)C2)C(=O)Nc1cccc(CN2CCC(F)CC2)c1 (stereo not drawn) [Example 18-2]	< 50
COc1ccc(NC(=O)C(CCC2CC2)NC(=O)c2sc(-c3ccccc3)nc2C)cn1 (stereo not drawn) [Example 6-61]	≥ 200
Cc1c(C(=O)N[C@@H](CCC2CC2)C(=O)N(C)[C@@H](C)c2ccccc2)[nH]c2c1C(=O)CC(C)(C)C2 [Example 13-5]	≥ 200
Cc1c(C(=O)NC(CCC2CC2)C(=O)Nc2ccc(CCN(C)C)cc2)[nH]c2c1C(=O)CC(C)(C)C2 (stereo not drawn) [Example 1-139]	< 50
COc1ccc(NC(=O)C(CCC2CC2)NC(=O)c2ccc(Nc3ccnc(C)c3)cc2)cn1 (stereo not drawn) [Example 6-63]	< 50
CCCCC(NC(=O)c1[nH]c2c(c1C)C(=O)CC(C)(C)C2)C(=O)NCc1ccc(CN2CCCCC2)cc1 (stereo not drawn) [Example 18-9]	< 50
Cc1c(C(=O)NC(CCC2CC2)C(=O)N2CCc3c(OCCN4CCCCC4)cccc32)[nH]c2c1C(=O)CC(C)(C)C2 (stereo not drawn) [Example 1-123]	50 to 200
